We go through two compounds from patent US20090124643A1, “Use of a Cannabinoid CB1 Receptor Antagonist for Preparation of Drugs Useful for the Prevention and Treatment of Benign Prostatic Hypertrophy” (SANOFI-AVENTIS, priority 2006, published 2009).

The subject of assay [1] is BPH in spontaneously hypertensive rats. Kind of assay: Treatment of BPH in spontaneously hypertensive rats (SHR), qualitative histological study of the prostate lobes. Format: in vivo, rat. Particulars: SHR rats treated for 28 days, from 10 mg/kg onward. How it is done:
Treatment of BPH in Spontaneously Hypertensive Rats
The spontaneously hypertensive rat (SHR) model as described by Golomb et al., J. Androl. (2000), 21(1), 58-64 and Matituahou et al., J. Androl. (2003) 24(2), 263-9 is used.
A qualitative histological study of the prostate lobes is carried out on untreated SHR rats and on rats treated for 28 days with 10 mg/kg or 30 mg/kg of rimonabant.

The test system of the next assay is testosterone-induced BPH. Kind of assay: Treatment of testosterone-induced BPH in rats. Format: in vivo, rat. The conditions noted are these: for Decrease in volume of total prostate / Decrease in volume of ventral prostate / Decrease in weight of total prostate / Decrease in weight of ventral prostate: % of the increase preinduced with testosterone. The procedure:
Treatment of Testosterone-Induced BPH in Rats
Male rats are implanted with catheters and receive 18.75 mg per rat of testosterone, subcutaneously at D-4.
From day D0 to day D21, they receive rimonabant daily, at the dose of either 10 mg/kg per os, or of 30 mg/kg per os.
At day D22, the animals are sacrificed and their prostate is analyzed.
This decrease is evaluated as % of the increase preinduced with testosterone.

Where [2] appears, read: rimonabant 10 mg/kg/d per os, D0 to D21.
[3] abbreviates: rimonabant 30 mg/kg/d per os, D0 to D21.

For `Cc1c(C(=O)NN2CCCCC2)nn(-c2ccc(Cl)cc2Cl)c1-c1ccc(Cl)cc1` [Rimonabant, N-piperidino-5-(4-chlorophenyl)-1-(2,4-dichlorophenyl)-4-methylpyrazole-3-carboxamide], the “Histology of the ventral prostate lobes” value in assay [1] is “the tissues are normal and non-hypertrophied”. For the same compound, the “Weight and volume of the prostate” value in the assay with testosterone-induced BPH (chronic treatment with rimonabant, 10 or 30 mg/kg per os daily, D0 to D21) is “significant decrease”. In the assay on testosterone-induced BPH (setting [2]), the “Decrease in volume of total prostate” value is 64%, the “Decrease in volume of ventral prostate” value is 88%, the “Decrease in weight of total prostate” value was found to be 54% and the “Decrease in weight of ventral prostate” value stood at 87%. Besides, in the assay with testosterone-induced BPH (setting [3]), the “Decrease in volume of total prostate” value is reported as 87%, the “Decrease in volume of ventral prostate” value is 100%, the “Decrease in weight of total prostate” value amounted to 73% and the “Decrease in weight of ventral prostate” value turned out to be 95%.
With `C[C@]12CC[C@H]3[C@@H](CCC4=CC(=O)CC[C@@]43C)[C@@H]1CC[C@@H]2O` [testosterone], the “Increase in weight and volume of the total prostate and of the ventral prostate” value in the assay with testosterone-induced BPH (pretreatment with testosterone 18.75 mg per rat, subcutaneously at D-4) is on record as “approximately 35%”.
